The values below come from PubChem BioAssay (NCI).

SMILES strings stand for the structures.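 Briefly, cells in 96-well plates were exposed to five compound concentrations for 48 h, and endpoints were estimated by linear interpolation. At the TGI there is no net growth.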

Test systems include KM12 colon; HCT-15 colon; K-562 leukemia; ACHN renal; HL-60(TB) leukemia; MDA-MB-231 breast; TK-10 renal; SK-OV-3 ovarian; NCI-H226 lung; SK-MEL-5 melanoma.
What all share (experiment): inhibition of tumour cell growth, NCI panel, 48 h

With `CN1C(=O)C(O)CC1c1cccc(C(F)(F)F)c1` (stereo unspecified), the TGI with KM12 colon, in the assay with HCT-15 colon, in the assay on K-562 leukemia, in the assay with ACHN renal, with HL-60(TB) leukemia and in the assay on MDA-MB-231 breast was above 100 µM each time. Besides, the TGI in the assay with TK-10 renal, with SK-OV-3 ovarian, in the assay with NCI-H226 lung and in the assay with SK-MEL-5 melanoma was above 100 µM throughout.

As to `Cc1ccccc1OC(C)C(=O)NN1C(=O)CC(=O)N(c2ccccc2)C1=S` (stereo unspecified), the TGI in the assay with KM12 colon is above 100 µM; with HCT-15 colon, above 100 µM; in the assay on K-562 leukemia, above 100 µM; in the assay with ACHN renal, above 100 µM; in the assay on HL-60(TB) leukemia, 61.2 µM; in the assay on MDA-MB-231 breast, above 100 µM. The TGI in the assay on TK-10 renal, in the assay with SK-OV-3 ovarian, in the assay on NCI-H226 lung and in the assay on SK-MEL-5 melanoma was above 100 µM throughout.

On to `S=C(NCc1ccccc1)N/N=C/c1ccccn1`, for which the TGI in the assay with KM12 colon is above 100 µM; in the assay on HCT-15 colon, above 40.5 µM; in the assay with K-562 leukemia, above 100 µM; in the assay with ACHN renal, above 56.1 µM; in the assay with HL-60(TB) leukemia, 0.183 µM; with MDA-MB-231 breast, above 100 µM. Moreover, the TGI in the assay with TK-10 renal is above 100 µM; in the assay with SK-OV-3 ovarian it was above 29 µM; in the assay on NCI-H226 lung, 17.7 µM; in the assay with SK-MEL-5 melanoma it was above 93.6 µM.

In the case of `COc1ccc(-c2cc(C(O)C3CCCCN3)c3ccccc3n2)cc1` (stereo unspecified), the TGI in the assay with KM12 colon turned out to be 15.3 µM; in the assay with HCT-15 colon, 34.2 µM; in the assay on K-562 leukemia, 8.24 µM; in the assay with ACHN renal it was 24.4 µM; in the assay with HL-60(TB) leukemia, 26.4 µM; in the assay on MDA-MB-231 breast, 9.83 µM. Moreover, the TGI in the assay on TK-10 renal stood at 23.7 µM; with SK-OV-3 ovarian it was 27.3 µM; in the assay with NCI-H226 lung, 20.9 µM; in the assay on SK-MEL-5 melanoma it was 17.2 µM.

Take `COC(=O)c1c(-c2ccc(Cl)cc2)cc2c3ccccc3n(C)c2c1C(=O)OC`: the TGI in the assay with KM12 colon, in the assay on HCT-15 colon, in the assay on K-562 leukemia, in the assay with ACHN renal, in the assay with HL-60(TB) leukemia and with MDA-MB-231 breast was above 100 µM in each case. The TGI in the assay on TK-10 renal, with SK-OV-3 ovarian, in the assay with NCI-H226 lung and in the assay with SK-MEL-5 melanoma was above 100 µM throughout.

`NS(=O)(=O)c1ccc(NNc2c3ccccc3nc3c(C(=O)Nc4ccc(S(=O)(=O)Nc5ncccn5)cc4)cccc23)cc1`: the TGI in the assay with KM12 colon, in the assay with HCT-15 colon, with K-562 leukemia, with ACHN renal, in the assay with HL-60(TB) leukemia and with MDA-MB-231 breast was above 25 µM in each case. Also, the TGI in the assay on TK-10 renal, with SK-OV-3 ovarian, in the assay with NCI-H226 lung and in the assay on SK-MEL-5 melanoma was above 25 µM throughout.

For the molecule `COc1ccc(CCN2CCc3c(C)c(C#N)c4nc5ccccc5n4c32)cc1OC`, the TGI in the assay on HCT-15 colon is above 100 µM; with K-562 leukemia, 55.7 µM; with ACHN renal it was above 100 µM; with HL-60(TB) leukemia, above 100 µM; in the assay on MDA-MB-231 breast, 86.1 µM; in the assay with TK-10 renal, above 100 µM. The TGI with SK-OV-3 ovarian is above 100 µM; with NCI-H226 lung, 93.7 µM; in the assay on SK-MEL-5 melanoma, 52 µM.

`COc1ccc(C(O)CC(O)(C(F)(F)F)C(F)(F)F)cc1` (stereo unspecified): the TGI with KM12 colon is above 100 µM; with HCT-15 colon it was above 100 µM; in the assay with K-562 leukemia, 53.6 µM; in the assay with ACHN renal, above 100 µM; in the assay on HL-60(TB) leukemia, 37 µM; in the assay on MDA-MB-231 breast, above 100 µM. Moreover, the TGI in the assay with TK-10 renal is above 100 µM; with SK-OV-3 ovarian, above 100 µM; with NCI-H226 lung, above 100 µM; in the assay on SK-MEL-5 melanoma, 36.2 µM.

Regarding `O=C(/C=C/c1cccs1)c1ccccc1Cl`, the TGI is 20.4 µM with KM12 colon; 33.4 µM in the assay with HCT-15 colon; above 100 µM with K-562 leukemia; 29.4 µM in the assay on ACHN renal; 30.4 µM in the assay with HL-60(TB) leukemia; above 54.4 µM with MDA-MB-231 breast. The TGI with TK-10 renal is 32.3 µM; with SK-OV-3 ovarian it was above 77.9 µM; in the assay with NCI-H226 lung, above 65.7 µM; in the assay with SK-MEL-5 melanoma, 32.5 µM.

Turning to `Cc1ccc(/C(O)=C/c2nc3ccc([N+](=O)[O-])cc3nc2/C=C(\O)c2ccc(C)cc2)cc1`, the TGI with KM12 colon, in the assay with HCT-15 colon, with K-562 leukemia, with ACHN renal, in the assay on HL-60(TB) leukemia and in the assay with MDA-MB-231 breast was above 100 µM in each case. Also, the TGI with TK-10 renal was above 100 µM; in the assay with SK-OV-3 ovarian, 97.6 µM; with NCI-H226 lung it was above 100 µM; in the assay on SK-MEL-5 melanoma, above 100 µM.

For the molecule `CCN(CC)c1nc(N(C)C)c2ccccc2n1`, the TGI with KM12 colon is above 100 µM; in the assay with HCT-15 colon it was above 100 µM; in the assay on K-562 leukemia it was 44.5 µM; in the assay on ACHN renal, above 100 µM; in the assay with HL-60(TB) leukemia, above 100 µM; with MDA-MB-231 breast it was above 100 µM. Moreover, the TGI in the assay on TK-10 renal was above 100 µM; in the assay on SK-OV-3 ovarian, above 100 µM; with NCI-H226 lung, 69.3 µM; in the assay on SK-MEL-5 melanoma, 35 µM.

On to `Cn1c2ccccc2n2c3ncccc3c(=S)c(C#N)c12`, for which the TGI in the assay on KM12 colon, in the assay on HCT-15 colon, in the assay on K-562 leukemia, with ACHN renal, in the assay with HL-60(TB) leukemia and in the assay with MDA-MB-231 breast was above 100 µM in each case. Also, the TGI with SK-OV-3 ovarian, in the assay on NCI-H226 lung and with SK-MEL-5 melanoma was above 100 µM in each case.

Take `CC(C)(C)OC(=O)n1cc(C2CN(O)C(=O)C23CCC(=O)N3Cc2ccccc2)c2ccccc21` (stereo unspecified): the TGI was above 100 µM in the assay on KM12 colon; above 100 µM in the assay with K-562 leukemia; above 100 µM in the assay on HL-60(TB) leukemia; above 100 µM in the assay on MDA-MB-231 breast; above 100 µM with TK-10 renal; 66.5 µM in the assay with SK-OV-3 ovarian. The TGI was 62 µM with NCI-H226 lung and above 100 µM with SK-MEL-5 melanoma.
